Values after ≈ are worked out from the molar mass of the structure shown.
Legend:
[1] = physchem; conditions: 1-octanol/phosphate buffer, pH 7.4, logD
[2] = target: T1, Aurora kinase A (Homo sapiens, UniProt O14965)
T1 sequence (O14965 whole entry): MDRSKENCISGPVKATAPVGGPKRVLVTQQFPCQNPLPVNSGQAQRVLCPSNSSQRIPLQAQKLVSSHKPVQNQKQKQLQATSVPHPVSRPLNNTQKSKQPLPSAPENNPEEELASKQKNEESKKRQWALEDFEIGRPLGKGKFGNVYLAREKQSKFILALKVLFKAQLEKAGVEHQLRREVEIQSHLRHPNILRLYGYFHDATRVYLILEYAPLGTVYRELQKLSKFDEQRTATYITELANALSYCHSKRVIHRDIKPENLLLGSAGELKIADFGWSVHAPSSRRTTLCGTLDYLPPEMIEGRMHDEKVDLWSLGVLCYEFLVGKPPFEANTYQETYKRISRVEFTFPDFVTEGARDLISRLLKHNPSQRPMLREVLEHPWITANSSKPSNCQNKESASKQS

[3] = buffer, pH 7.4, 24 h, 10000 µM
[4] = octanol/water, pH 7.4, 20 min, 10000 µM
[5] = physchem; conditions: PBS buffer, pH 7.4, Kinetic_solubility
[6] = target: T2, Tyrosine-protein kinase ITK/TSK (Homo sapiens, UniProt Q08881)
T2 sequence (Q08881 whole entry): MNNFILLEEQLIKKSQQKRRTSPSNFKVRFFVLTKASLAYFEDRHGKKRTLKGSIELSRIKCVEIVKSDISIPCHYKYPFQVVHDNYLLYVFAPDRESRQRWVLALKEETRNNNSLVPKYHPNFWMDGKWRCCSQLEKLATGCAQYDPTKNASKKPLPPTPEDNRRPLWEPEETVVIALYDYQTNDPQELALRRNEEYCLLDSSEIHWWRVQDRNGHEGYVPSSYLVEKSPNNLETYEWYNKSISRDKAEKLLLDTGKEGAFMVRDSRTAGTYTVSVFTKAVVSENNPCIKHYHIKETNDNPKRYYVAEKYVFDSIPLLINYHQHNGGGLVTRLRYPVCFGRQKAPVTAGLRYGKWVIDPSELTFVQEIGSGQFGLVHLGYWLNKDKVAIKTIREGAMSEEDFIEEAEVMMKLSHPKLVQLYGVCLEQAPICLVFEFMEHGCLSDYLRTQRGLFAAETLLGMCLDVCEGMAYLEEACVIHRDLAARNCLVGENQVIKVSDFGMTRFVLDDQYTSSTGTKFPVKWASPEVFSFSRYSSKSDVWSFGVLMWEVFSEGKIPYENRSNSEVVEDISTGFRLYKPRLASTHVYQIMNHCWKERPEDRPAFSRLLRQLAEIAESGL

[7] = target: T2, Tyrosine-protein kinase ITK/TSK; remark: listed apart in the source
[8] = organism: Homo sapiens; experiment: Selectivity ratio of Ki for human His-tagged full length AURKAto Ki for GST-tagged full length ITK (unknown origin)
[9] = Apparent permeability across MDCK cells; type: ADME, cell-based, Canis lupus familiaris; conditions: dog
[10] = Plasma protein binding in human; type: ADME, cell-free; conditions: read-out: PPB (converted)

O=C(Nc1cnn(Cc2ccccc2)c1)c1n[nH]c2c1CC1CC1C2 (centres undefined)
logD at 20 min, 10000 µM [1]: 2 | Ki [2]: 870 nM | Kinetic_solubility [3]: 18 µM

O=C(Nc1cnn(Cc2ccccc2)c1)c1n[nH]c2c1CC1CC1C2 (racemic)
Ki [2]: 2000 nM | logD [4]: 2.5 | solubility kinetic at 24 h, 10000 µM [5]: 13 µM (≈ 4.33 µg/mL)

N#Cc1cccc(Cn2cc(NC(=O)c3n[nH]c4c3CC(c3cn[nH]c3)CC4)cn2)c1 (centres undefined) [listing 1 of 2 here]
logD at 20 min, 10000 µM [1]: 2.4 | Ki [2]: 220 nM | IC50 [6]: 2200 nM | Ki [7]: 9.4 nM

N#Cc1cccc(Cn2cc(NC(=O)c3n[nH]c4c3CC(c3cn[nH]c3)CC4)cn2)c1 (racemic) [listing 1 of 2 here]
Ki [2]: 210 nM | IC50 [6]: 1700 nM | logD [4]: 2.5 | Ki [7]: 8.3 nM | solubility kinetic at 24 h, 10000 µM [5]: < 1 µM

N#Cc1cccc(Cn2cc(NC(=O)c3n[nH]c4ccccc34)cn2)c1
logD at 20 min, 10000 µM [1]: 3 | Ki [2]: 870 nM | Ratio Ki [8]: 20 | Ki [7]: 43 nM | solubility kinetic at 24 h, 10000 µM [5]: 5.8 µM (≈ 1.99 µg/mL)

CN(C)C[C@@H](c1ccccc1)n1cc(NC(=O)c2n[nH]c3c2CCC(C)(C)C3)cn1
logD at 20 min, 10000 µM [1]: 2.7 | Ki [2]: 210 nM | Papp [9]: 8.1 ×10⁻⁶ cm/s | solubility kinetic at 24 h, 10000 µM [5]: 42 µM (≈ 17.1 µg/mL)

N#Cc1cccc(Cn2cc(NC(=O)c3n[nH]c4cc(-c5cn[nH]c5)ccc34)cn2)c1
logD at 20 min, 10000 µM [1]: 3.4 | Papp [9]: 0.1 ×10⁻⁶ cm/s | solubility kinetic at 24 h, 10000 µM [5]: < 1 µM

CC1(CO)CCc2c(C(=O)Nc3cnn(Cc4ccccc4)c3)n[nH]c2C1 (racemic)
logD at 20 min, 10000 µM [1]: 2.6 | Ki [2]: 2300 nM | solubility kinetic at 24 h, 10000 µM [5]: 77 µM (≈ 28.1 µg/mL)

N#Cc1cccc(Cn2cc(NC(=O)c3n[nH]c4c3CC(c3cn[nH]c3)CC4)cn2)c1 (centres undefined) [listing 2 of 2 here]
Ratio Ki [8]: 23

CN(C)CC[C@H](c1ccccc1)n1cc(NC(=O)c2n[nH]c3c2CCC(C)(C)C3)cn1
logD at 20 min, 10000 µM [1]: 2 | solubility kinetic at 24 h, 10000 µM [5]: 49 µM (≈ 20.6 µg/mL)

O=C(Nc1cnn(Cc2ccccc2)c1)c1n[nH]c2c1CCC1(COC1)C2
logD at 20 min, 10000 µM [1]: 2.4 | Ki [2]: 2900 nM | solubility kinetic at 24 h, 10000 µM [5]: 78 µM (≈ 28.3 µg/mL)

CC1(CO)CCc2c(C(=O)Nc3cnn(Cc4ccccc4)c3)n[nH]c2C1 (centres undefined)
Ki [2]: 200 nM | logD [4]: 2.7 | Kinetic_solubility [3]: 83 µM

CC1(C)CCc2c(C(=O)Nc3cnn(Cc4ccccc4)c3)n[nH]c2C1
logD at 20 min, 10000 µM [1]: 4.3 | Ki [2]: 480 nM | Papp [9]: 7.6 ×10⁻⁶ cm/s | solubility kinetic at 24 h, 10000 µM [5]: < 1 µM

CC12Cc3[nH]nc(C(=O)Nc4cnn(Cc5ccccc5)c4)c3CC1C2 (racemic)
logD at 20 min, 10000 µM [1]: 3.8 | Ki [2]: 440 nM | solubility kinetic at 24 h, 10000 µM [5]: 1.3 µM (≈ 0.452 µg/mL)

Cc1cccc([C@H](CCN(C)C)n2cc(NC(=O)c3n[nH]c4c3CCC(C)(C)C4)cn2)c1
logD at 20 min, 10000 µM [1]: 2.4 | Ki [2]: 500 nM | Papp [9]: 4.3 ×10⁻⁶ cm/s | solubility kinetic at 24 h, 10000 µM [5]: 72 µM (≈ 31.3 µg/mL)

O=C(Nc1cnn(Cc2ccccc2)c1)c1n[nH]c2c1CCC1(CCOC1)C2 (centres undefined)
Kinetic_solubility [3]: 60 µM

O=C(Nc1cnn(Cc2ccccc2)c1)c1n[nH]c2c1CCC1(CC1)C2
logD at 20 min, 10000 µM [1]: 3.9 | Ki [2]: 180 nM | solubility kinetic at 24 h, 10000 µM [5]: < 1 µM

N#Cc1cccc(Cn2cc(NC(=O)c3n[nH]c4c3CCCC4)cn2)c1
logD at 20 min, 10000 µM [1]: 2.6 | Ki [2]: 780 nM | Ratio Ki [8]: 26 | solubility kinetic at 24 h, 10000 µM [5]: 14 µM (≈ 4.85 µg/mL)

CC1(C)CCc2[nH]nc(C(=O)Nc3cnn(Cc4ccccc4)c3)c2C1
logD at 20 min, 10000 µM [1]: 4.3 | Ki [2]: 1700 nM | solubility kinetic at 24 h, 10000 µM [5]: < 1 µM

CC1(C)CCc2c(C(=O)Nc3cnn([C@@H](CCS(C)(=O)=O)c4ccccc4)c3)n[nH]c2C1
logD at 20 min, 10000 µM [1]: 2.5 | Ki [2]: 2100 nM | IC50 [6]: 310 nM | Ratio Ki [8]: 340 | Papp [9]: 3.2 ×10⁻⁶ cm/s | Ki [7]: 6.2 nM | solubility kinetic at 24 h, 10000 µM [5]: 14 µM (≈ 6.38 µg/mL)

CC1CCc2c(C(=O)Nc3cnn(Cc4ccccc4)c3)n[nH]c2C1 (centres undefined)
Ki [2]: 520 nM

COC1(C)CCc2c(C(=O)Nc3cnn(Cc4ccccc4)c3)n[nH]c2C1 (centres undefined)
Kinetic_solubility [3]: 29 µM

O=C(Nc1cnn(Cc2ccccc2)c1)c1n[nH]c2c1CCC(F)(F)C2
logD at 20 min, 10000 µM [1]: 3.8 | Ki [2]: 950 nM | solubility kinetic at 24 h, 10000 µM [5]: < 1 µM

COC1(C)CCc2c(C(=O)Nc3cnn(Cc4ccccc4)c3)n[nH]c2C1 (racemic)
logD at 20 min, 10000 µM [1]: 2.2 | Kinetic_solubility [3]: 77 µM

CC1CCc2c(C(=O)Nc3cnn(Cc4ccccc4)c3)n[nH]c2C1 (racemic)
logD at 20 min, 10000 µM [1]: 4 | Ki [2]: 1100 nM | solubility kinetic at 24 h, 10000 µM [5]: < 1 µM

CC1(C)CCc2c(C(=O)Nc3cnn([C@H](c4ccccc4)C4CCNCC4)c3)n[nH]c2C1
logD at 20 min, 10000 µM [1]: 1.3 | Ki [2]: 19 nM | Papp [9]: 0.1 ×10⁻⁶ cm/s | solubility kinetic at 24 h, 10000 µM [5]: 102 µM (≈ 44.1 µg/mL)

CC12Cc3[nH]nc(C(=O)Nc4cnn(Cc5ccccc5)c4)c3CC1C2 (centres undefined)
Ki [2]: 54 nM | Kinetic_solubility [3]: 1.6 µM

O=C(Nc1cnn(Cc2ccccc2)c1)c1n[nH]c2c1CCC1(CCOC1)C2 (racemic)
logD at 20 min, 10000 µM [1]: 2.2 | Ki [2]: > 5700 nM | Kinetic_solubility [3]: 20 µM

CN(C)CC[C@@H](c1ccccc1)n1cc(NC(=O)c2n[nH]c3cc(-c4cn[nH]c4)ccc23)cn1
fraction unbound [10]: 0.03 | Ki [2]: 15 nM | solubility kinetic at 24 h, 10000 µM [5]: 94 µM (≈ 42.7 µg/mL)

CN(C)CC[C@@H](c1cccc(Cl)c1)n1cc(NC(=O)c2n[nH]c3c2CCC(C)(C)C3)cn1
logD at 20 min, 10000 µM [1]: 2.7 | Ki [2]: 290 nM | solubility kinetic at 24 h, 10000 µM [5]: 25 µM (≈ 11.4 µg/mL)

N#Cc1cccc(Cn2cc(NC(=O)c3n[nH]c4c3CC(c3cn[nH]c3)CC4)cn2)c1 (racemic) [listing 2 of 2 here]
Ratio Ki [8]: 25

Reference: ChEMBL document CHEMBL3297697, “Property- and structure-guided discovery of a tetrahydroindazole series of interleukin-2 inducible T-cell kinase inhibitors” (J Med Chem, 2014)
